Measured values from patent publication US11723886B2, “Targeting ocular diseases with novel APE1/Ref-1 inhibitors” (Indiana University Research and Technology Corporation, priority 2018, dated 2023).
Entries after “also recorded” stand apart in the source; their conditions may differ.

What was measured:
[1] = molecular target: Ref-1/APE1 endonuclease activity (Homo sapiens, UniProt P27695); details: cited from earlier work
[2] = tested on: retinal neovascularization; details: delivered intravitreally; cited from earlier work
[3] = tested on: laser-induced choroidal neovascularization; details: delivered intravitreally; cited from earlier work
[4] = tested on: APE1 repair activity in neurons; details: cited from earlier work
[5] = tested on: total vessel density and VEGF expression; details: stroke in type one diabetes mellitus rats; cited from earlier work
[6] = tested on: retinal and choroidal endothelial cells; details: cited from earlier work
[7] = tested on: laser-induced choroidal neovascularization
[8] = tested on: NF-κB and HIF-1α activity; details: retinal pigment epithelial cells; concomitant reduction in VEGF expression; cited from earlier work

Ref-1/APE1 endonuclease activity, sequence (P27695 whole entry): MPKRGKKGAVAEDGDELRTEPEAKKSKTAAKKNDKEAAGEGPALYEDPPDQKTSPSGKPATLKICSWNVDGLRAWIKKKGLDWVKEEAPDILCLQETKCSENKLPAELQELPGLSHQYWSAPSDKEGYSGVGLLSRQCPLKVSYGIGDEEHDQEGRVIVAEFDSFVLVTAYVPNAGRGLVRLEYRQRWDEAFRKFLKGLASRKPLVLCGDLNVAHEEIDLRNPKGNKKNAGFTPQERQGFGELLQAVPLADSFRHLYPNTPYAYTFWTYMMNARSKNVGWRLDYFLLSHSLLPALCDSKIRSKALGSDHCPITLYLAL

CCCCCCCCC/C(=C\C1=C(C)C(=O)C(OC)=C(OC)C1=O)C(=O)O [APX3330]
effect on endonuclease / APE1 activity [1]: does not affect the protein's endonuclease activity; also recorded: do not inhibit APE1 activity | neovascularization, VLDLR knockout mouse [2]: reduced neovascularization | neovascularization, L-CNV [3]: reduced neovascularization | APE1 repair activity in neurons [4]: can enhance APE1 repair activity | total vessel density and VEGF expression [5]: significantly decreased total vessel density and VEGF expression | in vitro angiogenesis (proliferation, migration, tube formation) [6]: block in vitro angiogenesis | intraocular or systemic toxicity in vivo ([7]; i.p. dosing in L-CNV mice): not observed obvious intraocular or systemic toxicity | L-CNV volume ([7]; i.p., 50 mg/kg twice daily, 5 days on/two days off, two weeks): significantly reduced L-CNV volume | NF-κB and HIF-1α activity [8]: reduced both NF-κB and HIF-1α activity
